This note sets out measurements from publication PMC10648927, “Examining the activity of cefepime-taniborbactam against Burkholderia cepacia complex and Burkholderia gladioli isolated from cystic fibrosis patients in the United States” (Antimicrobial Agents and Chemotherapy, 2023).

Holding throughout (parameters): agar dilution MIC, growth inhibition of clinical Burkholderia isolates
In test [1] the test system is T1, B. multivorans AU25626.
T1 construct: AU25626
The test is described as follows: microbe, parasite or virus in culture. Particulars: Burkholderia multivorans, AU25626. Put shortly: (§1)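 MICs by agar dilution against Bcc and B. gladioli clinical isolates, interpreted with CLSI breakpoints where available; K. pneumoniae ATCC 700603 (SHV-18) and ATCC BAA-1705 (KPC) served as quality controls.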

The test system of test [2] is T2, B. cepacia AU1555.
T2 construct: AU1555
Description: microbe, parasite or virus in culture. Particulars: Burkholderia cepacia, AU1555. Put shortly: as §1

Test [3] relates to T3, B. contaminans AU2244.
T3 construct: AU2244
The test is described as follows: organism not typed. The essentials:
as §1

For test [4], the system named is T4, B. diffusa AU19637.
T4 construct: AU19637
The test is described as follows: organism not typed. Put shortly:
as §1

In test [5] the test system is T5, B. vietnamiensis AU21549.
T5 construct: AU21549
The test is described as follows: microbe, parasite or virus in culture. Particulars: Burkholderia vietnamiensis, AU21549. Put shortly:
as §1

Test [6] has as its system T6, B. multivorans AU24277.
T6 construct: AU24277
The test is described as follows: microbe, parasite or virus in culture. To be noted: Burkholderia multivorans, AU24277. Put shortly: as §1

The subject of test [7] is T7, B. cenocepacia AU20146.
T7 construct: AU20146
The test is described as follows: microbe, parasite or virus in culture. Particulars: Burkholderia cenocepacia, AU20146. The essentials:
as §1

Test [8] has as its system T8, B. cepacia AU19265.
T8 construct: AU19265
The test is described as follows: microbe, parasite or virus in culture. Particulars: Burkholderia cepacia, AU19265. Put shortly: as §1

In test [9] the test system is T9, B. multivorans AU10086.
T9 construct: AU10086
The test is described as follows: microbe, parasite or virus in culture. To be noted: Burkholderia multivorans, AU10086. The essentials: as §1

Test [10] relates to T10, B. vietnamiensis AU28891.
T10 construct: AU28891
Description: microbe, parasite or virus in culture. To be noted: Burkholderia vietnamiensis, AU28891. The essentials:
as §1

Test [11] has as its system T11, B. dolosa AU29021.
T11 construct: AU29021
Description: microbe, parasite or virus in culture. To be noted: Burkholderia dolosa, AU29021. The essentials:
as §1

Test [12] concerns T12, Burkholderia cepacia complex Bcc Indeterminate AU14915.
T12 construct: AU14915
Description: microbe, parasite or virus in culture. To be noted: Burkholderia cepacia. Put shortly:
as §1

Test [13] concerns T13, B. multivorans AU19518.
T13 construct: AU19518
Description: microbe, parasite or virus in culture. To be noted: Burkholderia multivorans, AU19518. Put shortly: as §1

Test [14] concerns T14, B. cenocepacia AU9512.
T14 construct: AU9512
The test is described as follows: microbe, parasite or virus in culture. To be noted: Burkholderia cenocepacia, AU9512. Put shortly:
as §1

Test [15] relates to T15, B. cenocepacia AU24362.
T15 construct: AU24362
Description: microbe, parasite or virus in culture. To be noted: Burkholderia cenocepacia, AU24362. The essentials: as §1

The test system of test [16] is T16, B. vietnamiensis AU19457.
T16 construct: AU19457
Description: microbe, parasite or virus in culture. To be noted: Burkholderia vietnamiensis, AU19457. Put shortly: as §1

The test system of test [17] is T17, B. multivorans AU11358.
T17 construct: AU11358
Description: microbe, parasite or virus in culture. To be noted: Burkholderia multivorans, AU11358. The essentials:
as §1

Test [18] has as its system T18, B. multivorans AU10047.
T18 construct: AU10047
The test is described as follows: microbe, parasite or virus in culture. To be noted: Burkholderia multivorans, AU10047. Put shortly: as §1

Test [19] has as its system T19, B. multivorans AU26250.
T19 construct: AU26250
Description: microbe, parasite or virus in culture. Particulars: Burkholderia multivorans, AU26250. Put shortly: as §1

Test [20] deals with T20, B. cenocepacia AU17796.
T20 construct: AU17796
The test is described as follows: microbe, parasite or virus in culture. To be noted: Burkholderia cenocepacia, AU17796. Put shortly:
as §1

Test [21] concerns T21, Burkholderia cepacia complex Bcc Indeterminate AU9162.
T21 construct: AU9162
The test is described as follows: microbe, parasite or virus in culture. Particulars: Burkholderia cepacia. The essentials: as §1

Test [22] concerns T22, B. multivorans AU25543.
T22 construct: AU25543
Description: microbe, parasite or virus in culture. Particulars: Burkholderia multivorans, AU25543. The essentials: as §1

Values after ≈ are worked out from the molar mass of the structure shown.

Take `CO/N=C(\C(=O)N[C@@H]1C(=O)N2C(C(=O)[O-])=C(C[N+]3(C)CCCC3)CS[C@H]12)c1csc(N)n1` [cefepime]: the MIC in test [1] is 8 µg/mL (≈ 16.6 µM); in test [2], above 32 µg/mL; in [3] it was 16 µg/mL (≈ 33.3 µM); in [4], 32 µg/mL (≈ 66.6 µM); in test [5], 2 µg/mL (≈ 4.16 µM); in test [6] it was above 32 µg/mL. The MIC in test [7] is 16 µg/mL (≈ 33.3 µM); in test [8], 32 µg/mL (≈ 66.6 µM); in test [9], 32 µg/mL (≈ 66.6 µM); in test [10] it was 8 µg/mL (≈ 16.6 µM); in test [11] it was above 32 µg/mL; in [12], above 32 µg/mL. Besides, the MIC in test [13] was 32 µg/mL (≈ 66.6 µM); in test [14], 32 µg/mL (≈ 66.6 µM); in test [15] it was above 32 µg/mL; in [16], above 32 µg/mL; in [17], 8 µg/mL (≈ 16.6 µM); in test [18], 32 µg/mL (≈ 66.6 µM). The MIC in [19] worked out at 4 µg/mL (≈ 8.32 µM); in [20] it was 16 µg/mL (≈ 33.3 µM); in [21] it was 32 µg/mL (≈ 66.6 µM); in test [22], 4 µg/mL (≈ 8.32 µM).
As to `C[C@H]1COc2c(N3CCN(C)CC3)c(F)cc3c(=O)c(C(=O)O)cn1c23` [levofloxacin], the MIC in test [1] came out at 4 µg/mL (≈ 11.1 µM); in test [2] it was 16 µg/mL (≈ 44.3 µM); in test [3] it was 4 µg/mL (≈ 11.1 µM); in test [4], 2 µg/mL (≈ 5.53 µM); in test [5], 4 µg/mL (≈ 11.1 µM); in test [6], 32 µg/mL (≈ 88.6 µM). Moreover, the MIC in test [7] was 2 µg/mL (≈ 5.53 µM); in test [8], 4 µg/mL (≈ 11.1 µM); in test [9], above 32 µg/mL; in test [10], 8 µg/mL (≈ 22.1 µM); in test [11], 4 µg/mL (≈ 11.1 µM); in test [12] it was 16 µg/mL (≈ 44.3 µM). Also, the MIC in [13] was determined as 32 µg/mL (≈ 88.6 µM); in [14], 16 µg/mL (≈ 44.3 µM); in test [15], 8 µg/mL (≈ 22.1 µM); in [16], 16 µg/mL (≈ 44.3 µM); in [17], 2 µg/mL (≈ 5.53 µM); in test [18], 8 µg/mL (≈ 22.1 µM). Also, the MIC was 2 µg/mL (≈ 5.53 µM) in test [19], 8 µg/mL (≈ 22.1 µM) in test [20], 1 µg/mL (≈ 2.77 µM) in [21] and 2 µg/mL (≈ 5.53 µM) in test [22].
As to `C[C@@H](O)[C@H]1C(=O)N2C(C(=O)O)=C(S[C@@H]3CN[C@H](C(=O)N(C)C)C3)[C@H](C)[C@H]12` [meropenem], the MIC is above 32 µg/mL in [1]; 8 µg/mL (≈ 20.9 µM) in test [2]; 4 µg/mL (≈ 10.4 µM) in test [3]; 2 µg/mL (≈ 5.22 µM) in [4]; 0.5 µg/mL (≈ 1.3 µM) in test [5]; 16 µg/mL (≈ 41.7 µM) in test [6]. In addition, the MIC in test [7] came to 4 µg/mL (≈ 10.4 µM); in test [8] it was 4 µg/mL (≈ 10.4 µM); in test [9] it was 32 µg/mL (≈ 83.4 µM); in test [10], 2 µg/mL (≈ 5.22 µM); in [11], 8 µg/mL (≈ 20.9 µM); in [12], 16 µg/mL (≈ 41.7 µM). The MIC in [13] worked out at 16 µg/mL (≈ 41.7 µM); in test [14] it was 4 µg/mL (≈ 10.4 µM); in test [15], 16 µg/mL (≈ 41.7 µM); in test [16], 4 µg/mL (≈ 10.4 µM); in test [17], 8 µg/mL (≈ 20.9 µM); in test [18], 16 µg/mL (≈ 41.7 µM). The MIC in test [19] is 2 µg/mL (≈ 5.22 µM); in test [20] it was 4 µg/mL (≈ 10.4 µM); in test [21] it was 4 µg/mL (≈ 10.4 µM); in [22], 1 µg/mL (≈ 2.61 µM).
